Reference: patent publication US20080039328A1, “Post Harvest Control of Genetically Modified Crop Growth Employing D-Amino Acid Compounds” (BASF PLANT SCIENCE GMBH, priority 2004, published 2008)
Entries after “also recorded” stand apart in the source; their conditions may differ.

What was measured:
[1] = tested on: wild-type Arabidopsis thaliana; assay: Growth of wild-type A. thaliana plantlets on medium with D-amino acids; type: in vivo
Description: Wild type Arabidopsis thaliana plantlets were grown on half-concentrated Murashige-Skoog medium (0.5% (wt/vol) sucrose, 0.8% (wt/vol) agar) supplemented with the indicated D-amino acid at either 3 mM (Panel A) or 30 mM (Panel B).
(§1) FIG. 4 D-amino acid dose responses of dao1 transgenic and wild-type A. thaliana. (a-d) Growth of dao1 transgenic line 3:7 (white), 10:7 (light gray), 13:4 (gray) and wild-type (black) plants, in fresh weight per plant, on media containing various concentrations of D-serine, D-alanine, D-isoleucine and D-valine in half-strength MS with 0.5% (wt/vol) sucrose and 0.8% (wt/vol) agar. Different concentration ranges were used for different ID-amino acids. The plants were grown for 10 d after germination under 16 h photoperiods at 24° C.; n=10±s.e.m., except for plants grown on D-isoleucine, where smaller Petri dishes were used, (n=6±s.e.m.).
(§2) T1 seeds of transgenic Arabidopsis plants were surface-sterilized and sown in Petri plates that were sealed with gas-permeable tape. The growth medium was half strength MS19 with 0.5% (wt/vol) sucrose and 0.8% (wt/vol) agar, plus 3 mM D-alanine, 3 mM D-serine or 50 μg/ml kanamycin as the selective agent. Plants were grown for 5 d after germination with a 16 h photoperiod at 24° C. To evaluate the selection efficiency on different substrates, 2,074, 1,914 and 1,810 T1 seeds were sown on D-alanine-, D-serine- and kanamycin-selective plates, respectively, and the number of surviving seedlings was counted (44, 32 and 43, respectively).

[2] = tested on: Transgenic Zea mays plants (DAAO from Rhodotorula gracilis); assay: Greenhouse spraying of mixed plantlets on soil with D-isoleucine; type: in vivo; conditions: sprayed, 10 mM, 20 mM, 30 mM in isotonic salt solution, pH 7.0, soil, green-house
Description: (§3) Transgenic Arabidopsis, Brassica napus, and Zea mays plants are generated as described above using either construct I (SEQ ID NO: 15) or construct II (SEQ ID NO: 16) for Agrobacterium mediated transformation. Transgenic plants are selected using the negative selection marker property of the D-amino acid oxidase on medium comprising 0.3, 3 or 30 mM D-alanine (or D-serine). Resulting transgenic plants are selfed to obtain homozygous plants. Homozygous plants are propagated over 2 to 3 generations to ensure stability of the transgenic insertion.
(§4) Seeds of transgenic plants are mixed with seeds of the corresponding non-transgenic line (used for transformation). Various proportions of transgenic versus non-transgenic seeds are used (1:1, 1:10, 1:100).
(§5) Seeds are sown on standard soil under green-house conditions. After germination, developing plantlets were sprayed at various developmental steps with preparations of D-isoleucine (final concentration of 10 mM, 20 mM, 30 mM, respectively in isotonic salt solution, pH 7.0).

[3] = tested on: non-transgenic Arabidopsis plants; assay: as above; type: in vivo; conditions: sprayed, 10 mM, 20 mM, 30 mM in isotonic salt solution, pH 7.0, soil, green-house
Description: as §3, §4, §5

[4] = tested on: Transgenic Arabidopsis plants (DAAO from Rhodotorula gracilis); assay: as above; type: in vivo; conditions: sprayed, 10 mM, 20 mM, 30 mM in isotonic salt solution, pH 7.0, soil, green-house
Description: as §3, §4, §5

[5] = tested on: non-transgenic Zea mays plants; assay: as above; type: in vivo; conditions: sprayed, 10 mM, 20 mM, 30 mM in isotonic salt solution, pH 7.0, soil, green-house
Description: as §3, §4, §5

[6] = tested on: Transgenic Brassica napus plants (DAAO from Rhodotorula gracilis); assay: as above; type: in vivo; conditions: sprayed, 10 mM, 20 mM, 30 mM in isotonic salt solution, pH 7.0, soil, green-house
Description: as §3, §4, §5

[7] = tested on: non-transgenic Brassica napus plants; assay: as above; type: in vivo; conditions: sprayed, 10 mM, 20 mM, 30 mM in isotonic salt solution, pH 7.0, soil, green-house
Description: as §3, §4, §5

[8] = tested on: dao1 transgenic A. thaliana; assay: Growth of dao1 (DAAO) transgenic A. thaliana on medium with D-amino acids; type: in vivo, Arabidopsis thaliana
Description: as §1, §2
The T-DNA contained both 35S:dao1 and pNos:nptII, allowing D-amino acid and kanamycin selection to be compared in the same lot of seeds.
Therefore, plants containing the construct were tested as described above on two sets of media, one containing D-isoleucine and the other containing D-valine at various concentrations, to assess whether DAAO could also be used as a counter-selection marker. Unambiguous counter-selection selection was achieved when seeds were sown on either D-isoleucine or D-valine at concentrations greater than 10 mM (FIG. 4 c,d).

[9] = target: T1, DAAO (Rhodotorula toruloides, UniProt P80324); assay: DAAO incubation of cell-free plant extracts, keto acid production by HPLC; type: biochemical, Rhodotorula gracilis; conditions: cell-free extracts from dao1 transgenic line 10:7
T1 construct: expressed in transfected cells; host or cells: Arabidopsis thaliana (Col-0), dao1 transgenic line 10:7, transformed with pPCV702:dao1 (CaMV 35S); crude soluble protein extract
T1 sequence (P80324 25-368): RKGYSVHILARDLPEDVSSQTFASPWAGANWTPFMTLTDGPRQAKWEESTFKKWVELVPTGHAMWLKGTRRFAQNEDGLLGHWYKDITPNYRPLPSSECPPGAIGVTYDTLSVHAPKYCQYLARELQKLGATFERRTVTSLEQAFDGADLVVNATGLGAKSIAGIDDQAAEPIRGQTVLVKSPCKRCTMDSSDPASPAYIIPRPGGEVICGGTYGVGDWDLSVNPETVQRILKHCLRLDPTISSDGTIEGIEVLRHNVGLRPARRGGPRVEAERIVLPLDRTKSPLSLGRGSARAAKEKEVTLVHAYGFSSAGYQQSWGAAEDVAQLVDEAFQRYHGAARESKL
Description: Soluble proteins were extracted by shaking 0.1 g samples of plant material that had been finely pulverized in a 1.5 ml Eppendorf tube in 1 ml of 0.1 M potassium phosphate buffer, pH 8. DAAO activity was then assayed as follows. Reaction mixtures were prepared containing 2,120 μl of 0.1 M potassium phosphate buffer, pH 8, 80 μl of crude protein extract and 100 μl of 0.3 M D-alanine. The samples were incubated for 2 h at 30° C. The enzyme activity was then assessed, by measuring the increase in absorbance at 220 nm (E=1.090 M^−1 cm^−1) associated with the conversion of D-alanine to pyruvate, after transferring the test tubes to boiling water for […] to stop the reaction. In control reactions, D-alanine was added immediately before boiling. One unit of DAAO activity is defined as the turnover of one micromole of substrate per minute, and activity was expressed per gram plant biomass (fresh weight). The breakdown of D-isoleucine and D-valine in DAAO incubations, and the associated production of 3-methyl-2-oxopentanoate and 3-methyl-2-oxobutanoate, were analyzed by high-performance liquid chromatography. In other respects the reactions were carried out as described above.
Presumably endogenous transaminase may be specific for the L-enantiomer, so the corresponding D-enantiomer is not metabolized in wildtype plants, but only in plants expressing DAAO. […]

[10] = various concentrations in half-strength MS, 10 d after germination

Compound: CC[C@@H](C)[C@@H](N)C(=O)O [D-isoleucine]
- Effect on plant growth (FIG. 3) ([1]; 3 mM or 30 mM in half-concentrated Murashige-Skoog medium, wild type plantlets): no significant effects
- Response of wild-type plants (compared with DAAO lines) ([1]; in vivo): grew well, with no sign of toxicity
- Effect on wild-type plantlets (FIG. 2) ([1]; treated with 30 mM): no severe damage
- Growth of wild-type plants (FIG. 4) [1, 10]: not toxic; also recorded: minor effects; also recorded: not the wild-type plants
- Transgenic plants able to reach maturity [2]: None
- Effect of the treatment on non-transgenic plants [3]: unaffected
- Transgenic plants able to reach maturity [4]: None
- Effect of the treatment on non-transgenic plants [5]: unaffected
- Transgenic plants able to reach maturity [6]: None
- Effect of the treatment on non-transgenic plants [7]: unaffected
- Response of thirteen individual lines expressing DAAO ([8]; in vivo): effectively killed
- Effect on transgenic plantlets comprising DAAO gene (FIG. 2) ([8]; treated with 30 mM): toxic effect
- Growth of plants expressing DAAO (FIG. 4) [8, 10]: strong negative influence on the growth; also recorded: inhibit growth
- Increase in production of 3-methyl-2-oxopentanoate compared to extracts of wild-type plants [9]: 15 fold
